The values below come from article PMC11756387, “Improving the solubility of pseudo-hydrophobic chemicals through co-crystal formulation” (PNAS Nexus, 2025).

Converted amounts (≈) assume the structure as drawn.

The target of one series is AD tau (Homo sapiens, UniProt P10636). It is filed as cell-based.
Series [1] can be described thus: physchem. Particulars: water, thermodynamic from solid.
Series [2] is described as follows: in vitro. As to conditions: male, mouse, microsomes.
A short description of series [3]: physchem. Particulars: pH 7.4.
The conditions of series [4]: buffer.
The nature of series [5]: in vitro. Particulars: human, microsomes.
The nature of series [6]: Kinetic solubility in simulated intestinal fluid (SIF). As to conditions: pH 6.8.

Chain of AD tau (P10636 623-695 limits assumed): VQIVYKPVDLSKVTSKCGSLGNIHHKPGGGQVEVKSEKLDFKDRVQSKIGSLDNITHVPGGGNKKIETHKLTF

On to `[Ca+2].[OH-].[OH-]` [Ca(OH)2, calcium hydroxide], for which the “Inhibitory activity of counterions toward tau seeding” value on AD tau is recorded as “neither TEA nor Ca(OH)2 exhibited inhibitory activity”.

In general, thermodynamic solubility refers to the concentration in solution at equilibrium with solid. One may read the half-life as how long it takes for the measured level to halve. Lower therefore signals rapid decline. As usually defined, the logD is lipophilicity at a set pH, counting ionised and neutral species. Read a low logD as a more hydrophilic compound. As a reminder, the fraction remaining is what is left of the initial amount, in per cent. A lower fraction remaining goes with more turnover. As to `O=C1c2c(O)cc(O)cc2O[C@H](c2cc(O)c(O)c(O)c2)[C@H]1O` [DHM, dihydromyricetin], the thermodynamic solubility in “physchem [1]” worked out at 650 µg/mL (≈ 2030 µM). This molecule came in with a half-life at 1 µM in “in vitro [2]” of 1.57 h. In addition, in the series “physchem [3]”, the logD at 1 h turned out to be 0.63. Further, in series [4], the “Fraction remaining dissolved in aqueous solution after centrifugation” value is on record as “about 20%”. Also, in “in vitro [5]”, the half-life at 1 µM turned out to be 3.38 h and the amount remaining at 1 h, 1 µM was ~100%.

One may read the kinetic solubility as solubility judged after dilution from a stock solution rather than from solid. For `O=C(O)Cc1ccccc1Nc1c(Cl)cccc1Cl` [diclofenac], the solubility (kinetic) at 2 h in series [6] was ~300 µM (≈ 88.8 µg/mL).
